Experimental data reported in patent US6204293A, “Inhibitors of protein isoprenyl transferases” (University of Pittsburgh, priority 1998, dated 2001).
Counter-ions that a name gives are not always drawn.

molecular target: T1, Rat brain protein farnesyltransferase (Rattus norvegicus, UniProt Q02293+Q04631); test: % inhibition of farnesylation, scintillation proximity assay with biotin-K Ras B fragment; type: biochemical; details: Table 1; 1 × 10^-5 M
T1 construct: Rat brain protein farnesyltransferase activity is measured; from tissue; host or cells: rat brain
How it was run: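 Rat brain enzyme, purified through three steps, in a scintillation proximity assay kit with biotin-K Ras B fragment substrate at 0.1 mM final. Value is % inhibition of farnesylation.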

T1 sequence (Q02293 whole entry, the tested form may be a part, one chain of several): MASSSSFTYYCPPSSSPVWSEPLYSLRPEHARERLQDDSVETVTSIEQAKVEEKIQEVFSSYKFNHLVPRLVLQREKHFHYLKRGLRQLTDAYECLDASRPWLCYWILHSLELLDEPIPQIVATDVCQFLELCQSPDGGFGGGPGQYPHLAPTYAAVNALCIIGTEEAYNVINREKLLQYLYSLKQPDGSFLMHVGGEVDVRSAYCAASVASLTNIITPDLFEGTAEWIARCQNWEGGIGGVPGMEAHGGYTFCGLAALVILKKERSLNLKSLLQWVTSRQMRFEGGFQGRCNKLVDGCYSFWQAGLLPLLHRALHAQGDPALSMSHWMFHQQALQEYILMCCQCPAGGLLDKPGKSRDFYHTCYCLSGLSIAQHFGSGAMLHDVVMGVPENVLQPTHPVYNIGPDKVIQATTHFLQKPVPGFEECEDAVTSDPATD

Row | Molecule | % inhibition at 1 × 10^-5 M [%]
1 | CSCC[C@H](NC(=O)c1ccc(CNc2ccc(C(C)C)cc2)cc1-c1ccccc1)C(=O)O [Example 692] | 74
2 | CSCC[C@H](NC(=O)c1ccc(CNC(CO)C(O)c2ccccc2)cc1-c1ccccc1)C(=O)O (stereo partly shown) [Example 713] | 40
3 | CSCC[C@H](NC(=O)c1ccc(NC(=O)CCN)cc1-c1ccccc1)C(=O)O [Example 750] | 44
4 | CSCC[C@H](NC(=O)c1ccc(CNc2nnc(C)s2)cc1-c1ccccc1)C(=O)O [Example 371] | 66

same assay, conditions: Table 2; 1 × 10^-6 M

Row | % inhibition at 1 × 10^-6 M [%] | Molecule
5 | 94 | CSCC[C@H](NC(=O)c1ccc(CN(Cc2ccccc2)Cc2ccccc2)cc1-c1ccccc1C)C(=O)O [Example 512]
6 | 42 | CSCC[C@H](NC(=O)c1ccc(CN(C(=O)c2ccccc2)C(CC2CCCCC2)CC2CCCCC2)cc1-c1ccccc1C)C(=O)O [Example 910]
7 | 90 | CSCC[C@H](NC(=O)c1ccc(CN2CCC[C@H]2COCc2ccccc2)cc1-c1ccccc1C)C(=O)O [Example 824]
8 | 99 | CSCC[C@H](NC(=O)c1ccc(CN2C(=O)OC[C@@H]2CC2CCCCC2)cc1-c1ccccc1C)C(=O)O [Example 349]
9 | 97 | Cc1ccccc1-c1cc(CN(C)C(C)(C)CC2CCCCC2)ccc1C(=O)N[C@@H](CCS(C)(=O)=O)C(=O)O [Example 314]
10 | 87 | CSCC[C@H](NC(=O)c1ccc(C=CCCCc2ccccc2)cc1-c1ccccc1C)C(=O)O [Example 480]
11 | 72 | CSCC[C@H](NC(=O)c1ccc(CN(C(C)C)C2(Cc3ccccc3)CCCC2)cc1-c1ccccc1C)C(=O)O [Example 343]
12 | 32 | CSCC[C@H](NC(=O)c1ccc(S(=O)(=O)NCCN2CCOCC2)cc1-c1ccccc1C)C(=O)O [Example 775]
13 | 67 | COc1ccc(CC(=O)Nc2ccc(C(=O)N[C@@H](CCSC)C(=O)O)c(-c3ccccc3C)c2)cc1 [Example 542]
14 | 77 | CSCC[C@H](NC(=O)c1ccc(CN(CC(c2ccccc2)c2ccccc2)c2ccccc2)cc1-c1ccccc1C)C(=O)O [Example 509]
15 | 81 | CSCC[C@H](NC(=O)c1ccc(CNc2ccc(S(=O)(=O)Nc3onc(C)c3C)cc2)cc1-c1ccccc1C)C(=O)O [Example 726]

Continued, molecule first:

Row | Molecule | % inhibition at 1 × 10^-6 M [%]
16 | CSCC[C@H](NC(=O)c1ccc(NCC2CNCCN2)cc1-c1ccccc1)C(=O)O (stereo partly shown) [Example 286] | 84
17 | CSCC[C@H](NC(=O)c1ccc(CN2CCN(C(=O)OC(C)(C)C)CC2)cc1-c1ccccc1C)C(=O)O [Example 866] | 62
18 | CSCC[C@H](NC(=O)c1ccc(CNC(CO)Cc2ccc(Cl)cc2)cc1-c1ccccc1)C(=O)O (stereo partly shown) [Example 662] | 68
19 | CSCC[C@H](NC(=O)c1ccc(CNc2cccc(C(N)=O)c2)cc1-c1ccccc1)C(=O)O [Example 682] | 31
20 | CSCC[C@H](NC(=O)c1ccc(N2CC(=O)NNC2=O)cc1-c1ccccc1)C(=O)O [Example 224] | 41

same assay, conditions: Table 3; 1 × 10^-7 M

Row | % inhibition at 1 × 10^-7 M [%] | Molecule
21 | 72 | CSCC[C@H](NC(=O)c1ccc(CNc2ccc(N3CCOCC3)cc2)cc1-c1ccccc1C)C(=O)O [Example 863]
22 | 95 | CSCC[C@H](NC(=O)c1ccc(CN(CCC2CCCCC2)S(C)(=O)=O)cc1-c1ccccc1C)C(=O)O [Example 611]
23 | 80 | CCSCC(CC1CCCCC1)N(Cc1ccc(C(=O)N[C@@H](CCSC)C(=O)O)c(-c2ccccc2C)c1)CC(C)C (stereo partly shown) [Example 945]
24 | 87 | CSCC[C@H](NC(=O)c1ccc(CCc2ccccc2Cc2ccccc2)cc1-c1ccccc1C)C(=O)O [Example 458]

Further lines, the molecule ahead of its results:

Row | Molecule | % inhibition at 1 × 10^-7 M [%]
25 | CCCCN(CCCC)C(=O)CNCc1ccc(C(=O)N[C@@H](CCSC)C(=O)O)c(-c2ccccc2C)c1 [Example 912] | 85
26 | CCCCN(CCCC)C(=O)CN(C)Cc1ccc(C(=O)N[C@@H](CCSC)C(=O)O)c(-c2ccccc2C)c1 [Example 913] | 89
27 | N-[4-(2-adamantan-1-ylpropoxy)-2-(2-methylphenyl)benzoyl]methionine, lithium salt [Example 563] | 95

same assay, conditions: Table 4; 1 × 10^-8 M

Row | Molecule | % inhibition at 1 × 10^-8 M [%]
28 | CSCC[C@H](NC(=O)c1ccc(CN[C@H](CSC2CCCCC2)CC2CCCCC2)cc1-c1ccccc1C)C(=O)O [Example 766] | 95
29 | CSCC[C@H](NC(=O)c1ccc(CN(CCC2CCCCC2)S(=O)(=O)c2ccccc2)cc1-c1ccccc1C)C(=O)O [Example 612] | 96

same assay, conditions: Table 6; ** footnote 0.01 μM (title: 0.01 mM)

Row | Molecule | % inhibition at 0.01 μM (**) [%]
30 | CCSCC(CC1CCCCC1)NCc1cc(-c2ccccc2C)c(C(=O)N[C@@H](CCSC)C(=O)O)cc1F (stereo partly shown) [Example 1134] | 95

same assay, conditions: read-out: % inhibition at 0.01 μM (**)

Row | Molecule | inhibition at 0.01 µM [%]
31 | CCCCOCC(CC1CCCCC1)OCc1ccc(C(=O)N[C@@H](CCSC)C(=O)O)c(-c2ccccc2C)c1 (stereo partly shown) [Example 1308, N-[4-(3-Cyclohexyl-1-butoxyprop-2-yloxymethyl)-2-(2-methylphenyl)benzoyl]methionine Lithium Salt] | 91

same assay, conditions: read-out: % inhibition at 1 × 10^-6 M

Row | Molecule | inhibition at 1 µM [%]
32 | CSCC[C@H](NC(=O)c1ccc(COC2(c3ccccc3)CCN(C(=O)OC(C)(C)C)CC2)cc1-c1ccccc1C)C(=O)O [Example 816, N-[4-(1-t-butoxycarbonyl-4-phenylpiperidin-4-yloxymethyl)-2-(2-methylphenyl)benzoyl]methionine lithium salt] | 87
33 | CSCC[C@H](NC(=O)c1ccc(CSCc2ccccc2)cc1-c1ccccc1C)C(=O)O [Example 554, N-[4-benzylthiomethyl-2-(2-methylphenyl)benzoyl]methionine, lithium salt] | 96
34 | CSCC[C@H](NC(=O)c1ccc(OCCCc2ccccc2)cc1-c1ccccc1C)C(=O)O [Example 879, N-[4-(3-phenylpropoxy)-2-(2-methylphenyl)benzoyl]methionine, lithium salt] | 95

same assay, conditions: read-out: % inhibition at 1 × 10^-6 M; Table 2; 1 × 10^-6 M

Row | Molecule | inhibition at 1 µM [%]
35 | CSCC[C@H](NC(=O)c1ccc(CSc2nc(O)cc(Cc3ccccc3)n2)cc1-c1ccccc1C)C(=O)O [Example 744] | 84
36 | CSCC[C@H](NC(=O)c1ccc(CSc2nc3ccccc3o2)cc1-c1ccccc1C)C(=O)O [Example 322, [4-(2-benzoxazolylthiomethyl)-2-(2-methylphenyl)benzoyl]methionine] | 98
37 | Cc1ccccc1-c1cc(COCc2ccccc2)ccc1C(=O)N[C@@H](CCS(C)(=O)=O)C(=O)O [Example 576, N-2-[4-(benzyloxymethyl)-2-(2-methylphenyl)benzoyl]amino-4-methanesulfonylbutanoic acid lithium salt] | 88

same assay, conditions: read-out: % inhibition at 1 × 10^-7 M

Row | Molecule | inhibition at 0.1 µM [%]
38 | CSCC[C@H](NC(=O)c1ccc(COCc2ccc(-c3ccccc3F)o2)cc1-c1ccccc1C)C(=O)O [Example 437, N-[4-(5-(2-fluorophenyl)furan-2-ylmethoxymethyl)-2-(2-methylphenyl)benzoyl]methionine lithium salt] | 89
39 | CSCC[C@H](NC(=O)c1ccc(COCc2ccc(C(C)C)cc2)cc1-c1ccccc1C)C(=O)O [Example 940, N-[4-(4-isopropylbenzyloxymethyl)-2-(2-methylphenyl)benzoyl]methionine lithium salt] | 92
40 | CSCC[C@H](NC(=O)c1ccc(COCc2ccc(C)cc2)cc1-c1ccccc1C)C(=O)O [Example 579, N-[4-(4-methylbenzyloxymethyl)-2-(2-methylphenyl)benzoyl]methionine lithium salt] | 92
41 | CSCC[C@H](NC(=O)c1ccc(COCc2ccc(Cl)cc2)cc1-c1ccccc1C)C(=O)O [Example 933, N-[4-(4-chlorobenzyloxymethyl)-2-(2-methylphenyl)benzoyl]methionine lithium salt] | 91

same assay, conditions: read-out: % inhibition at 1 × 10^-7 M; Table 3; 1 × 10^-7 M

Row | Molecule | inhibition at 0.1 µM [%]
42 | CSCC[C@H](NC(=O)c1ccc(CSc2ccc3ccccc3c2)cc1-c1ccccc1C)C(=O)O [Example 551, N-[4-naphth-2-ylthiomethyl-2-(2-methylphenyl)benzoyl]methionine] | 93
43 | CSCC[C@H](NC(=O)c1ccc(CSc2nc3ccccc3c(=O)[nH]2)cc1-c1ccccc1C)C(=O)O [Example 745] | 93

same assay, conditions: read-out: % inhibition at 1 × 10^-8 M

Row | Molecule | inhibition at 0.01 µM [%]
44 | CSCC[C@H](NC(=O)c1ccc(COCc2occc2-c2ccc(Cl)cc2)cc1-c1ccccc1C)C(=O)O [Example 827, N-[4-(3-(4-chlorophenyl)furan-2-ylmethoxymethyl)-2-(2-methylphenyl)benzoyl]methionine lithium salt] | 77
45 | CSCC[C@H](NC(=O)c1ccc(COCc2oc(-c3ccc(Cl)cc3)c(Cl)c2Cl)cc1-c1ccccc1C)C(=O)O [Example 829, N-[4-(3,4-dichloro-5-(4-chlorophenyl)furan-2-ylmethoxymethyl)-2-(2-methylphenyl)benzoyl]methionine lithium salt] | 92

same assay, conditions: read-out: % inhibition at 1 × 10^-8 M; Table 4; 1 × 10^-8 M

Row | Molecule | inhibition at 0.01 µM [%]
46 | CSCC[C@H](NC(=O)c1ccc(COCc2ccc(-c3ccc(Cl)cc3)o2)cc1-c1ccccc1C)C(=O)NS(=O)(=O)c1ccccc1 [Example 819, N-[4-(5-(4-chlorophenyl)furan-2-ylmethoxymethyl)-2-(2-methylphenyl)benzoyl]methionine benzenesulfonimide] | 76
